Assay results published in ChEMBL document CHEMBL5465560, “Selectivity Literature for EUbOPEN Chemogenomic Library” (2024).

How the values were obtained:
[1] = target: Mitogen-activated protein kinase kinase kinase kinase 5 (Homo sapiens) (UniProt Q9Y4K4); details: at 10 µM
[2] = target: Glycogen synthase kinase-3 beta (Homo sapiens, UniProt P49841); assay: Selectivity interaction (Millipore kinase profiler) EUB0000124b GSK3B; details: at 10 µM
[3] = target: T1, Atypical kinase COQ8B, mitochondrial (Homo sapiens) (UniProt Q96D53); assay: Selectivity interaction (KinomeScan (DiscoverX)) EUB0000607a ADCK4; details: at 10 µM
T1 sequence (whole entry): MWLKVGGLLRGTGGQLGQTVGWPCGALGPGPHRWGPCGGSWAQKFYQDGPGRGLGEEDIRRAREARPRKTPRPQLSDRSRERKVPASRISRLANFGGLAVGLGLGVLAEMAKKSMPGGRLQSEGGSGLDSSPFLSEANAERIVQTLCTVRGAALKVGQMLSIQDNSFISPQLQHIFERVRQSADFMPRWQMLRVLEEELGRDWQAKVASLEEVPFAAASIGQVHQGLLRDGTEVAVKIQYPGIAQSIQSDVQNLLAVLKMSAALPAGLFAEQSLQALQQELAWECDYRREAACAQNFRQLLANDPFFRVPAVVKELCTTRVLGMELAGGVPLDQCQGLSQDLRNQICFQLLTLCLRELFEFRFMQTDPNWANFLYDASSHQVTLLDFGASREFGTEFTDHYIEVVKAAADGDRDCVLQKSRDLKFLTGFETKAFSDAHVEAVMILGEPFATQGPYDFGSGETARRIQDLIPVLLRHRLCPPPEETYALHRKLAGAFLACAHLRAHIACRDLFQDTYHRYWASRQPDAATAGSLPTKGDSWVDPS

[4] = target: TRAF2 and NCK-interacting protein kinase (Homo sapiens) (UniProt Q9UKE5); assay: Selectivity interaction (KinomeScan (DiscoverX)) EUB0001049a TNIK; details: at 1 µM
Chain of TRAF2 and NCK-interacting protein kinase (Homo sapiens) (Q9UKE5 whole entry, looked up): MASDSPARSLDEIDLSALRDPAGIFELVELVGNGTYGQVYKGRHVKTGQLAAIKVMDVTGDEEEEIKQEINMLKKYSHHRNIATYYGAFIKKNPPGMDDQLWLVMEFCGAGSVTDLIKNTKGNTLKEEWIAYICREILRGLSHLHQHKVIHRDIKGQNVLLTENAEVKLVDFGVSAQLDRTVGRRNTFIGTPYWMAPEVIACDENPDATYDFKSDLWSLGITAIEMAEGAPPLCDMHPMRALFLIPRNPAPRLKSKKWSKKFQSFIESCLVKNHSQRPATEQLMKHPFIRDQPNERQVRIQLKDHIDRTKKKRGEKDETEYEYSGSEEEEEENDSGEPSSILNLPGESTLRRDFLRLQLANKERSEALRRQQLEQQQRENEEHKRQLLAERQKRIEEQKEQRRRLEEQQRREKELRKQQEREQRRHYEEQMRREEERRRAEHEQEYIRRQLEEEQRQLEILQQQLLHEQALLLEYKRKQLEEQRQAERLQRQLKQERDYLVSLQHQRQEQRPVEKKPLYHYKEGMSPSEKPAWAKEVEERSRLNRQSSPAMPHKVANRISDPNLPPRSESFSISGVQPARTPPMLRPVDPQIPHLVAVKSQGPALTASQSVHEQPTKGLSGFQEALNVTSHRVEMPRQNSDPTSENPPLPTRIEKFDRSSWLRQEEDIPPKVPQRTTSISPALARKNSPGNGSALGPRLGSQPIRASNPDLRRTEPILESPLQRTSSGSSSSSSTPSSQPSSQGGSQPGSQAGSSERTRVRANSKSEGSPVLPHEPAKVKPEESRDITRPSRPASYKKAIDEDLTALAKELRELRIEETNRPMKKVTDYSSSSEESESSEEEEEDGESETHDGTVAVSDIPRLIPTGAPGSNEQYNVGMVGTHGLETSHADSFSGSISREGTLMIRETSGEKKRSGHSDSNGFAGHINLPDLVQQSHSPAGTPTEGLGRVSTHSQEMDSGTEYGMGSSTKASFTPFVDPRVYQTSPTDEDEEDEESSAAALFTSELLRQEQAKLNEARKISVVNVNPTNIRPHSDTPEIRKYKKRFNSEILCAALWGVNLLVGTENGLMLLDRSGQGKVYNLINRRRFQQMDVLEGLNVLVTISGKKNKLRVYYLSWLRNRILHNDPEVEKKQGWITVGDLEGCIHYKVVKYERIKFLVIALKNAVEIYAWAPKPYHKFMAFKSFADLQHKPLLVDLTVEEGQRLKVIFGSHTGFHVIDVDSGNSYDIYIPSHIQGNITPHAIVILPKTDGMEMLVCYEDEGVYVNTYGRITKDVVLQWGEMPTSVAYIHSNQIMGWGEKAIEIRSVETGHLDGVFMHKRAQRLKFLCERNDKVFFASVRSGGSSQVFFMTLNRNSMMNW

[5] = target: Histone-lysine N-methyltransferase KMT5B (Homo sapiens) (UniProt Q4FZB7); assay: Selectivity interaction (Methyltransferase screen (radiometric assays, panel of 8 PRMTs, 21 protein lysine methyltransferases, 3 DNA methyltransferases, and one RNA methyltransferase)) EUB0000271b SUV420H1
Chain of Histone-lysine N-methyltransferase KMT5B (Homo sapiens) (Q4FZB7 whole entry, looked up): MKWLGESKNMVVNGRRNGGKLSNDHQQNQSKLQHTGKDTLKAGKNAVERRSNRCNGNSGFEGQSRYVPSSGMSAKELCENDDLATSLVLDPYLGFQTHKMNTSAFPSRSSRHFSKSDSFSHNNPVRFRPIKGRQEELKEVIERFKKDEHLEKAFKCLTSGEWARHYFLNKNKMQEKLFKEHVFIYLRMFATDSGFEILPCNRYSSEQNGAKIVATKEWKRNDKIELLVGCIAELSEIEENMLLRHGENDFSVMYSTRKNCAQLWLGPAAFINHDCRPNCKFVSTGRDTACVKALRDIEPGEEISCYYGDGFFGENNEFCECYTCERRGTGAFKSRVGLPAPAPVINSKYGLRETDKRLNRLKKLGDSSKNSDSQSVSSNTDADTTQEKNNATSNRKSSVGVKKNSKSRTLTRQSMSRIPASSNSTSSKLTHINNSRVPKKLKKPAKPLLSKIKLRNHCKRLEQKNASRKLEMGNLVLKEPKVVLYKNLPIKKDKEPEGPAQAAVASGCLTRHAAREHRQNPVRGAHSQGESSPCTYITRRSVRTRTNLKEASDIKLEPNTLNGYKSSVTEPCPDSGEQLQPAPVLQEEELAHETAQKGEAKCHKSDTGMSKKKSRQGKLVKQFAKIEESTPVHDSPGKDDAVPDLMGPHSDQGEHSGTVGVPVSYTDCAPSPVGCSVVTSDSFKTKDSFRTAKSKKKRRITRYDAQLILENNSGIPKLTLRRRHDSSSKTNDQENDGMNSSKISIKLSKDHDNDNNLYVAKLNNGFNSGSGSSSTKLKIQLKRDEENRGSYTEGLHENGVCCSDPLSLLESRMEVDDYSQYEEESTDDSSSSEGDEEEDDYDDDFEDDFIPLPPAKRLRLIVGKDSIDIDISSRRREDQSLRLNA

[6] = target: Serine/threonine-protein kinase VRK2 (Homo sapiens) (UniProt Q86Y07); assay: Selectivity interaction (KinomeScan (DiscoverX)) EUB0000695a VRK2; details: at 100 nM
Chain of Serine/threonine-protein kinase VRK2 (Homo sapiens) (Q86Y07 whole entry): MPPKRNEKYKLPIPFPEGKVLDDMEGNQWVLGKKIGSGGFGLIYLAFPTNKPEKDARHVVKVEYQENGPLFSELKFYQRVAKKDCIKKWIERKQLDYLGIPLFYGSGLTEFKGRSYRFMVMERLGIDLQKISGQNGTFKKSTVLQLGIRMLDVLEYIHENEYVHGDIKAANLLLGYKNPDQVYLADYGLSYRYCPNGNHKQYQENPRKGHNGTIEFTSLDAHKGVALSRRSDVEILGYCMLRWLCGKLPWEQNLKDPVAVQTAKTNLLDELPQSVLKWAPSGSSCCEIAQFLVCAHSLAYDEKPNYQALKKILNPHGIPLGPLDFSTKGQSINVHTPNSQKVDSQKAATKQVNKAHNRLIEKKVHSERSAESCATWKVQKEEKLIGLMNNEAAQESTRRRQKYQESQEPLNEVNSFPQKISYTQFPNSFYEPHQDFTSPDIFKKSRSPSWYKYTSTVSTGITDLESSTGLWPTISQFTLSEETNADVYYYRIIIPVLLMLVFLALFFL

[7] = target: T2, Cyclin-dependent kinase-like 2 (Homo sapiens) (UniProt Q92772); assay: Selectivity interaction (KinomeScan (DiscoverX)) EUB0000595a CDKL2; details: at 10 µM
T2 sequence (whole entry): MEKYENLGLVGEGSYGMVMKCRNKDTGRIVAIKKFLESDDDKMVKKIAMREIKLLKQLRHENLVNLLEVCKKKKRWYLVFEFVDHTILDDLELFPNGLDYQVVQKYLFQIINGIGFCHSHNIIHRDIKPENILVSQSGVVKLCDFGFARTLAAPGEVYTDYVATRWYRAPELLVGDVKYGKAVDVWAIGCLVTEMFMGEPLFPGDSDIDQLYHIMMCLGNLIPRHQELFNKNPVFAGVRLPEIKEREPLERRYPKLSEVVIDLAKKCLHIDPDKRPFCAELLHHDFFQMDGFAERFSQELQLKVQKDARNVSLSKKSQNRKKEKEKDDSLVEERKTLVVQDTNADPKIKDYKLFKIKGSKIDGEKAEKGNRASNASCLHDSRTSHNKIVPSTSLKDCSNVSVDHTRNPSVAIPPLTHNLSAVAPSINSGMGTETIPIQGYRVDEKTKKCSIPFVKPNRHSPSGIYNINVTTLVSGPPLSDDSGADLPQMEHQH

[8] = target: Cyclin-dependent kinase 11B (Homo sapiens) (UniProt P21127); assay: Selectivity interaction (KinomeScan (DiscoverX)) EUB0000595a CDK11B; details: at 10 µM
[9] = target: T3, Ankyrin repeat and protein kinase domain-containing protein 1 (Homo sapiens) (UniProt Q8NFD2); assay: Selectivity interaction (KinomeScan (DiscoverX)) EUB0000618a ANKK1; details: at 10 µM
T3 sequence (whole entry): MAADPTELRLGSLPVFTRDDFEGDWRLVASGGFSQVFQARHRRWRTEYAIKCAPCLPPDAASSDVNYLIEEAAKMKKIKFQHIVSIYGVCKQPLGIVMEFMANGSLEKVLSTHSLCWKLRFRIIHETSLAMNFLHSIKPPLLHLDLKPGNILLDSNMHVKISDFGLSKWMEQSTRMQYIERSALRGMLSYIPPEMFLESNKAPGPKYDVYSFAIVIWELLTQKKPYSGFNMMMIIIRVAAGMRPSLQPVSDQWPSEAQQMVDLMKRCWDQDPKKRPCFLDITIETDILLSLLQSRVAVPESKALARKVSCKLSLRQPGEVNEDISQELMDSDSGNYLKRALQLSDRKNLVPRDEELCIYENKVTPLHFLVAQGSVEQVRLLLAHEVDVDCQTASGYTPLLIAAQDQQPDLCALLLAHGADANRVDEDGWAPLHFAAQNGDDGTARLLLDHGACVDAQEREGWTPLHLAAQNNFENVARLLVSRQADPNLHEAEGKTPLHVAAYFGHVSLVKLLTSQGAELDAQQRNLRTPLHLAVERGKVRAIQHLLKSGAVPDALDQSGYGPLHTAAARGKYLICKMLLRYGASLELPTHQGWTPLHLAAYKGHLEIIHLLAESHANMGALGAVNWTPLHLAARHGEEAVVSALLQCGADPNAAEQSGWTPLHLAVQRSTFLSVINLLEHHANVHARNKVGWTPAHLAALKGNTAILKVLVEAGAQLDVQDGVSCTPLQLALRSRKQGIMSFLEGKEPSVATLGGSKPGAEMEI

[10] = target: Activin receptor type-2A (Homo sapiens) (UniProt P27037); assay: Selectivity interaction (Ambit KINOMEscan and KiNATiv profiling in Jurkat cells) EUB0000090b ACVR2A; format: cell-based; details: at 1 µM
[11] = target: Diacylglycerol kinase alpha (Homo sapiens) (UniProt P23743); assay: Selectivity interaction (ActivX KiNativ screen (ex vivo kinase selectivity in human PBMCs)) EUB0001619a DGKA; format: cell-based; details: PBMC, at 1 µM
Chain of Diacylglycerol kinase alpha (Homo sapiens) (P23743 whole entry): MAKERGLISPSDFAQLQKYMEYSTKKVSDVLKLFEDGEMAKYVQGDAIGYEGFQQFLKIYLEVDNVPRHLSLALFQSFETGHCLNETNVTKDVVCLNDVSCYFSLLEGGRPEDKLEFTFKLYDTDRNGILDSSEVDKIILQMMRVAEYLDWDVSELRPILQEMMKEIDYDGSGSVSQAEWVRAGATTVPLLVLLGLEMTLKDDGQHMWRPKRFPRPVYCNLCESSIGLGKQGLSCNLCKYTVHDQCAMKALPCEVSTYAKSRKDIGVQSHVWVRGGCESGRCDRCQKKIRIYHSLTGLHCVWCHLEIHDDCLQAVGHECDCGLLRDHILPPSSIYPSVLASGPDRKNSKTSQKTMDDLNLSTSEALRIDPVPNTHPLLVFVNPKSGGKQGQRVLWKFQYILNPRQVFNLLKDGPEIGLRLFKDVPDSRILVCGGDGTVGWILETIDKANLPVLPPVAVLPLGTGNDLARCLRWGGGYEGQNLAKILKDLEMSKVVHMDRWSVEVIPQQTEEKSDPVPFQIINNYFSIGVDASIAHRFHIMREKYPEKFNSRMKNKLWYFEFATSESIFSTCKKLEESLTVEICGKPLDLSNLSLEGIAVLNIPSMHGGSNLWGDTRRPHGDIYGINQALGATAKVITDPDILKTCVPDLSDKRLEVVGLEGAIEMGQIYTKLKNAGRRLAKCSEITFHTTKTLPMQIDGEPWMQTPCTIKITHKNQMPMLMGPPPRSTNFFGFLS

Chain of Mitogen-activated protein kinase kinase kinase kinase 5 (Homo sapiens) (Q9Y4K4 whole entry, looked up): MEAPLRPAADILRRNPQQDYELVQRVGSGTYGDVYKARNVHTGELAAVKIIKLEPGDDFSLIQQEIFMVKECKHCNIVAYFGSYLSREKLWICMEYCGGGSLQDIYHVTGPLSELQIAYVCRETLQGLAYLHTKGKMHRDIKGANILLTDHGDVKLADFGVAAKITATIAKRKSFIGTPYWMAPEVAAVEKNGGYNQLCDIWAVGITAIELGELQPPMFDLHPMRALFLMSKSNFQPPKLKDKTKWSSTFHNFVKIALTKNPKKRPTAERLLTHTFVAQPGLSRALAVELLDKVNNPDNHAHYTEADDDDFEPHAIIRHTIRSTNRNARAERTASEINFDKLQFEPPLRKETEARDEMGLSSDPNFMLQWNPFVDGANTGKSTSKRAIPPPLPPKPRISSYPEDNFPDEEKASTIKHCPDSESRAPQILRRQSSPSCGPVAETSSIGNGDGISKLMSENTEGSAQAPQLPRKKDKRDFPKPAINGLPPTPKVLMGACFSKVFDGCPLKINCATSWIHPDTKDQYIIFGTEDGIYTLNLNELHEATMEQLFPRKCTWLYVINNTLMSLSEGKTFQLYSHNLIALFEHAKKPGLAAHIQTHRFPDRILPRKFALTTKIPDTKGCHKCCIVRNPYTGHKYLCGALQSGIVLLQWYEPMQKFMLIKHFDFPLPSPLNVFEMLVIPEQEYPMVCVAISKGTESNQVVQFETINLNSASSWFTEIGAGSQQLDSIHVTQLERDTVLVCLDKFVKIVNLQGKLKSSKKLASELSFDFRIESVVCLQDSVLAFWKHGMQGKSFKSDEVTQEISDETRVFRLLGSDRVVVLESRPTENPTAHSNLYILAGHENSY
Chain of Glycogen synthase kinase-3 beta (P49841 whole entry, looked up): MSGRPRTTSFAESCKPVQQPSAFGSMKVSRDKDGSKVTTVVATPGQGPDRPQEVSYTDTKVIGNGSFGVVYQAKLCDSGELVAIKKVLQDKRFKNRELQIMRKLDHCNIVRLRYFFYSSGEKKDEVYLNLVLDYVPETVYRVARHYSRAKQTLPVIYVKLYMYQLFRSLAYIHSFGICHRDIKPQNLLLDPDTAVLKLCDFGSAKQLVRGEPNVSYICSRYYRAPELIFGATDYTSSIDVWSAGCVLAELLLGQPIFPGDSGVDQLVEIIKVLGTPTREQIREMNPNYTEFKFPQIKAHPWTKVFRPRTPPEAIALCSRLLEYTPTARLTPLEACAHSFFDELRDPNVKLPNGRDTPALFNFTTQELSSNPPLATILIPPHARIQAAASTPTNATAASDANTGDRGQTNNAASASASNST

Work on `CCN(CC)CCCCNc1ncc2cc(-c3cc(OC)cc(OC)c3)c(NC(=O)NC(C)(C)C)nc2n1` yielded a % of control [1] of 100%.

Work on `CC(=O)Nc1cccc(-n2c(=O)n(C3CC3)c(=O)c3c(Nc4ccc(I)cc4F)n(C)c(=O)c(C)c32)c1` yielded a % of control [2] of 98%.

Compound `CNC(=O)Nc1ccc(-c2nc(N3CC4CCC(C3)O4)c3cnn(C4CCC5(CC4)OCCO5)c3n2)cc1` has a % of control [3] of 100%.

Work on `COc1cc(Nc2nc(C)cc(-c3cnn4nc(OC)ccc34)n2)cc(C(F)(F)F)c1` yielded a % of control [4] of 74%.

In the case of `Cc1cc(C)cc([C@@H]2c3cc(C)ccc3NC(=O)CN2C(=O)c2ccc(Br)s2)c1`, the % of activity ([5]; at 1 µM) is reported as 103% and the % of activity ([5]; at 10 µM) is reported as 101%.

For `Cc1cc(F)c(C(=O)Nc2cccc(-c3nncn3C(C)C)n2)cc1-n1cnc(C2CC2)c1`, the % of control [6] was 100%.

In the case of `COCC(=O)NC/C=C/c1ccc2ncnc(Nc3ccc(Oc4ccc(C)nc4)c(C)c3)c2c1` [CP-724714], the % of control [7] is reported as 91% and the % of control [8] is reported as 100%.

Work on `O[C@H]1CC[C@H](Nc2ncc3nc(Nc4c(F)cc(F)cc4F)n([C@H]4CCOC4)c3n2)CC1` yielded a % of control [9] of 100%.

Compound `CN(C)C/C=C/C(=O)Nc1ccc(C(=O)N2CCCC(Nc3ncc(Cl)c(-c4c[nH]c5ccccc45)n3)C2)cc1` (configuration not stated) has a % of control [10] of 83%.

`N#Cc1cccc(-c2c[nH]c3ncnc(N4CCOCC4)c23)c1` gave a % of inhibition [11] of -9%.
